# In patent publication US9308222B2, “Formulas comprising highly soluble elements and vitamins for the prevention and amelioration of osteoporosis” (priority 2008, dated 2016):
# Assays:
# [1] = humans; cited from earlier work
# [2] = according to the literature; cited from earlier work
# [3] = rats; cited from earlier work
# [4] = fortified foods, dual isotope techniques; cited from earlier work
# [5] = Calcium, magnesium and zinc balance in rats receiving calcium free diet
# Description: Male Sprague-Dawley rats (about 6-7 weeks), with an initial weight between 220 g to 250 g, were randomly divided into different treatment groups. All the rats were housed in individual metabolic cages in a temperature-controlled room. Each rat received free access to the normal diet (Table 34) before the experiment. Both normal and calcium free diets (Table 34) were used in this set of studies. De-ionized water was provided ad libitum. All the rats were weighed before treatment.
# In each study, there were seven treatment groups. […] Rats participating in the normal diet study received normal diet ad libitum throughout. Rats participating in the group of calcium free diet received the calcium free food ad libitum starting five days before and throughout treatment. In both study groups, animals received one dose a day for five days. […] Values of dosage and dietary intake were measured for the calculation of elemental balance. […] Daily elemental dosages, similar to that of human's, are 53.14 mg/kg for calcium, 0.38 to 55 mg/kg/day for magnesium and 0.017 to 2.5 mg/kg/day for zinc. […] The vehicle for preparing each dose was de-ionized water. The concentration of calcium in all dosage preparations was 15.94 mg/mL. One mL of each preparation was administered by gavage. Body weight, elemental dosage and diet consumption were recorded daily.
# Animals were housed individually in a metabolic cage five days before the study. Food consumption was evaluated daily. Urine and feces were collected daily for four days and the content of calcium, magnesium and zinc was determined. On Day 5, each animal received its treatment. […] Immediately after blood collection, the animal was then sacrificed with an overdose of isoflourane. Each blood sample was centrifuged at 1900 rpm at room temperature; plasma was harvested and stored at −20° C. until analysis. Urine was measured daily; it was diluted with de-ionized water, filtered and an aliquot was stored at −20° C. until analysis. Daily fecal output was collected and lyophilized. Each sample was weighed and digested using a mixture of three volume of nitric acid and one volume of perchloric acid. For every gram of dried feces, 10 mL of acid mixture was added. Each sample was digested for three days. The volume of the digested sample was measured and an aliquot of the digest was stored at −20° C. until analysis. The content of calcium, magnesium and zinc in plasma, feces and urine were determined using ICP-OES.
# Cumulated calcium balance and % cumulated net calcium balance were calculated using equations (1) and (2), except, the sum of daily intake and excretion was used for calculation. The balance for magnesium and zinc was also calculated using the concept of equations (1) and (2). Cumulated elemental balance and % cumulated net elemental balance were calculated in a similar fashion as described above.
# All results were analyzed using two-way ANOVA. […] The data are presented as mean±S.D. and mean±S.E.M. in tables and figures, respectively.
molecule,measurement,setting,value
O=C([O-])[O-].[Ca+2] [calcium carbonate],Amount of calcium absorbed (bioavailability),[1],24%
O=C([O-])CC(O)(CC(=O)[O-])C(=O)[O-].O=C([O-])CC(O)(CC(=O)[O-])C(=O)[O-].[Ca+2].[Ca+2].[Ca+2] [calcium citrate],Bioavailability of calcium,[2],30%
[O]=[Mg] [magnesium oxide],Bioavailability of magnesium,[3],50%
[O]=[Zn] [zinc oxide],Bioavailability of zinc,[4],approximately 24%
Calcium Acetate,Bioavailability of calcium compared to calcium carbonate,"[5]; Tables 36 and 40, dependent on the diet condition",at least 2 fold
same,Cumulative net percentage of calcium,"[5]; calcium free diet, Day 1",−30.6 ± 51.3 ^ %
same,Cumulative net percentage of calcium,"[5]; calcium free diet, Day 2",−9.88 ± 26.5 ^ %
same,Cumulative net percentage of calcium,"[5]; calcium free diet, Day 3",4.88 ± 24.0 ^ %
same,Cumulative net percentage of calcium (calcium retention),"[5]; calcium free diet, Day 4",11.1 ± 20.0 ^ %
